Experimental data: patent US20140314697A1, “Method for Inhibiting Inflammation and Reducing Melanophilin Expression with Glycine Derivatives And the Composition Thereof” (CORUM INC., priority 2013, published 2014)
Square brackets hold non-standard residues; d marks the D form. Peptide text beside a SMILES is read from it. Sar = CNCC(=O)O

How the values were obtained:
[1] = tested on: Human IL-8 secretion, Normal Human Epidermal Keratinocytes (NHEK); test: Human IL-8 production in UVB-irradiated NHEK (ELISA); type: cell-based; details: Table 10, 0.20%; for Human IL-8 Content, Average: 40 mJ/cm2 UVB; for Human IL-8 Content, Entry 1: passage 2 + 3, 40 mJ/cm2 UVB; for Human IL-8 Content, Entry 2: passage 2 + 4, 40 mJ/cm2 UVB; for Human IL-8 Content, Entry 3: passage 2 + 5, 40 mJ/cm2 UVB; for Human IL-8 Content, Entry 4: passage 2 + 6, 40 mJ/cm2 UVB
Protocol: (§1) Normal Human Epidermal Keratinocytes (NHEK) (PromoCell No. C-12008);
(§2) Positive Control: 40 mJ/cm^2 UVB,
(§3) Negative Control: No UVB irradiation;
(§4) a. Rinse the confluent NHEK cells with sterile D-PBS then trypsinize all cells and perform cell counting.
(§5) b. Dilute the cell density to 4˜8E+04/mL and seed 0.5 mL cell liquid (equals to 2˜4E+04 cells) each well in 24 well plate.
(§6) c. Incubate NHEK cells at 37° C., 5% CO2 until subconfluence.
(§7) d. Prepared dosing solution of testing material in Complete Medium: 0.4%, 0.2%, 0.1%, 0.05%.
(§8) e. Rinse the NHEK cells with sterile D-PBS and discard rinse buffer. Add 400 μL of controls and testing materials in different concentrations into NHEK cells in 24 well plates.
(§9) f. Pre-incubate NHEK cells with testing material at 37° C., 5% CO2 for about 6 hours.
(§10) g. After pre-incubating for about 6 hours, wash the NHEK cells with sterile D-PBS for twice then add […] sterile D-PBS for UVB irradiation.
(§11) h. UVB intensity is about 2300 μW/cm^2 and UVB energy is about 40 mJ/cm^2.
(§12) i. After UVB irradiation, discard sterile D-PBS and wash again. Add 400 μL of the same dosing solution in to each wells.
(§13) j. Post-incubate at 37° C., 5% CO2 for about 18 hours.
(§14) k. After post-incubating for 18 hours, collect the supernatant of controls and testing materials.
(§15) l. Determine the IL-6/IL-8 content of the supernatant by R&D ELISA kit as mentioned previously.
(§16) Normal Human Epidermal Keratinocytes (NHEK) were treated by the above-mentioned glycine derivatives for evaluating their anti-inflammatory effect on keratinocytes in this example.

[2] = tested on: Human IL-6 secretion, Normal Human Epidermal Keratinocytes (NHEK); test: Human IL-6 production in UVB-irradiated NHEK (ELISA); type: cell-based; details: Table 9, 0.20%, Positive Control 100%; for Human IL-6 Content, Average: 40 mJ/cm^2 UVB; for Human IL-6 Content, Entry 1: passage 2 + 2, 40 mJ/cm^2 UVB; for Human IL-6 Content, Entry 2 / Human IL-6 Content, Entry 3: passage 2 + 3, 40 mJ/cm^2 UVB
Protocol: as §1, §2, §3, §4, §5, §6, §7, §8, §9, §10, §11, §12, §13, §14, §15, §16

Compound	Human IL-8 Content, Average [1] [%]	Human IL-8 Content, Entry 1 [1] [%]	Human IL-8 Content, Entry 2 [1] [%]	Human IL-8 Content, Entry 3 [1] [%]	Human IL-8 Content, Entry 4 [1] [%]	Human IL-6 Content, Average [2] [%]	Human IL-6 Content, Entry 1 [2] [%]	Human IL-6 Content, Entry 2 [2] [%]	Human IL-6 Content, Entry 3 [2] [%]
CC(=O)NCC(=O)N(C)CC(=O)O [Ac-Gly-Sar, [(2-Acetylamino-acetyl)-methyl-amino]-acetic acid] (Ac-Gly-[Sar]-OH)	76	73	70	74	88	14	14	21	7
CC(=O)NCC(=O)NCC(=O)O [Ac-Gly-Gly, (2-acetylamino-acetylamino)-acetic acid]	59		68	54	53	20	12	16	33
CC(=O)NCC(=O)NCCCC(=O)O [Ac-Gly-GABA, 4-(2-Acetylamino-acetylamino)-butyric acid]	70	59	70	64	87	14	11	25	6
